Test [1] relates to seven gram-positive or -negative strains. As to the kind of experiment: Antibacterial Test 2: MIC against each of the seven strains. The test is classed as cell-based. To be noted: each of S. aureus, M. luteus, E. faecalis, B. subtilis, E. coli, K. pneumoniae, P. aeruginosa; read-out: MIC of each of the above-mentioned seven strains. On the procedure:
(§1) Then, tested were antibacterial activities of the typical compounds of the present invention against gram-positive and -negative bacteria other than Hp. MICs of the typical compounds of the present invention were determined in substantial accordance with agar dilution method (aerobic MIC method) based on standard method of the Japan Society Chemotherapy.
(§2) The respective test compound were dissolved in dimethyl sulfoxide (DMSO) and serially diluted twofold to prepare solutions of the compounds with concentration of 0.05-100 μg/ml. The solutions of the compounds were respectively added to sensitive-disk agar medium-N (manufactured by NISSUI SEIYAKU) to prepare agar plates for determination.
(§3) The below-mentioned strains freezingly conserved at -135° C. were thawed in a warm bath (40° C.), cultured in a sensitivity-determining bouillon at 37° C. for 18-20 hours, and then diluted with the above-mentioned medium to prepare about 1.0×10^6 CFU/ml of bacterial suspension.
(§4) Inoculation was made by 5 μl by multi-inoculator (manufactured by SAKUMA SEISAKUSHO). Culturing was made under the same conditions as those of the pre-culturing and the MIC (unit: μg/ml) was determined by observing whether the bacteria grew or not.

Test [2] has as its system Helicobacter pylori standard strain ATCC 43526 (NCTC 11916). Description: Antibacterial Test 1: MIC against Helicobacter pylori, agar plate dilution method (anaerobic MIC method). The test is classed as cell-based. Particulars: 72 h, Hp ATCC 43526, agar plate dilution, 37° C., 3 days.
The subject of test [3] is peptic ulcer. To be noted: up to; cited from earlier work.
Test [4] deals with S. aureus FDA 209P. Description: Antibacterial Test 2: MIC, agar dilution method (aerobic MIC method). Particulars: Staphylococcus aureus, FDA209P. The test is classed as cell-based. On the procedure:
as §1, §2, §3, §4

Test [5] relates to K. pneumoniae PCI 602. Described as above. The test is classed as cell-based. To be noted: Klebsiella pneumoniae, PCI602. On the procedure: as §1, §2, §3, §4
The test system of test [6] is B. subtilis PCI 219. Described as above. It is filed as cell-based. To be noted: Bacillus subtilis, PCI219. On the procedure: as §1, §2, §3, §4
For test [7], the system named is E. coli NIHJ JC-2. The description is as above. The test is classed as cell-based. To be noted: Escherichia coli, NIHJJC2. As to the method: as §1, §2, §3, §4
Test [8] concerns E. faecalis RIMD 3336001. The test is described as above. It is filed as cell-based. Particulars: Enterococcus faecalis, RIMD3336001. On the procedure: as §1, §2, §3, §4
The test system of test [9] is M. luteus ATCC 9341. The test is described as above. The test is classed as cell-based. To be noted: Micrococcus luteus, ATCC9341. On the procedure:
as §1, §2, §3, §4

Test [10] has as its system P. aeruginosa IFO 3445. The description is as above. It is filed as cell-based. To be noted: Pseudomonas aeruginosa, IFO3445. On the procedure: as §1, §2, §3, §4

Values after ≈ are worked out from the molar mass of the structure shown.

What is called MIC is the lowest concentration found to suppress growth. With `CC(C)[C@H](NC(=O)OC(C)(C)C)C(=O)N1CCN(c2ccc(C(=O)CSc3ccnc4ccccc34)cc2)CC1` [Compound 79, 4-[2-[4-[4-(N-tert-Butoxycarbonylvalyl)-1-piperazinyl]-phenyl]-2-oxoethylthio]quinoline], the MIC in test [1] was above 100 µg/mL; in test [2] it was 0.0016 µg/mL (≈ 0.00284 µM).
Take `O=C(CSc1ccnc2ccccc12)c1ccc(N2CCN(C(=O)OCC(Cl)(Cl)Cl)CC2)cc1` [Compound 81, 4-[2-[4-[4-(2,2,2-Trichloroethoxycarbonyl)-1-piperazinyl]phenyl]-2-oxoethylthio]quinoline]: the MIC in [1] is above 100 µg/mL; in test [2], 0.0016 µg/mL (≈ 0.00297 µM).
As to `COc1ccc2[nH]c([S+]([O-])Cc3ncc(C)c(OC)c3C)nc2c1` (stereo not drawn) [omeprazole], the cure rate in test [3] is 80-90%.
Regarding `CC(C)(C)OC(=O)N1CCC(Nc2ccc(C(=O)CSc3ccnc4ccccc34)cc2Br)C1` (stereo not drawn) [Compound 65, 4-[2-[3-Bromo-4-(1-tert-butoxycarbonyl-3-pyrrolidinylamino)phenyl]-2-oxoethylthio]quinoline], the MIC in test [1] was above 100 µg/mL; in test [2], 0.0031 µg/mL (≈ 0.00571 µM).
For `CN/C(=N/CCSCc1nc[nH]c1C)NC#N` [cimetidine], the cure rate in test [3] was 80-90%.
Consider `O=C(CSc1ccnc2ccccc12)c1ccc(N2CCN(C(=O)OCc3ccccc3)CC2)cc1` [Compound 78, 4-[2-[4-(4-Benzyloxycarbonyl-1-piperazinyl)phenyl)-2-oxoethylthio]quinoline], for which the MIC in test [1] was above 100 µg/mL; in test [2], 0.0031 µg/mL (≈ 0.00623 µM).
Regarding `CSc1ccc2c(SCc3ccc(N)cc3)ccnc2c1` [Compound 34, 4-(4-Aminobenzylthio)-7-methylthioquinoline], the MIC in test [2] was 0.2 µg/mL (≈ 0.64 µM); in test [4], above 100 µg/mL; in test [5], above 100 µg/mL; in test [6], above 100 µg/mL; in test [7], above 100 µg/mL; in test [8] it was above 100 µg/mL. Besides, the MIC in test [9] and in [10] was above 100 µg/mL throughout.

Values taken from patent US6057447A, “Quinoline sulfide derivatives” (Zenyaku Kogyo Kabushiki Kaisha, priority 1996, dated 2000).
